Assays:
blackgrass = assay: Test B pre/postemergence blackgrass; format: in vivo, Alopecurus myosuroides
Summary of the method: (§1)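 Response is a visual 0-to-10 score relative to untreated plants, where 0 means no effect and 10 means complete control, taken twelve to sixteen days after application. Treatments went onto soil at planting and onto foliage of 1- to 4-leaf plants, using a surfactant-containing non-phytotoxic solvent.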

surinam grass = assay: Test B pre/postemergence surinam grass; format: in vivo, Brachiaria decumbens
Summary of the method: as §1

cocklebur = assay: Test B pre/postemergence cocklebur; format: in vivo, Xanthium strumarium
Summary of the method: as §1

corn = assay: Test B pre/postemergence corn; format: in vivo, Zea mays
Summary of the method: as §1

crabgrass = assay: Test B pre/postemergence crabgrass; format: in vivo, Digitaria sanguinalis
Summary of the method: as §1

giant foxtail = assay: Test B pre/postemergence giant foxtail; format: in vivo, Setaria faberii
Summary of the method: as §1

morningglory = assay: Test B pre/postemergence morningglory; format: in vivo, Ipomoea hederacea
Summary of the method: as §1

pigweed = assay: Test B pre/postemergence pigweed; format: in vivo, Amaranthus retroflexus
Summary of the method: as §1

rape = assay: Test B pre/postemergence rape; format: in vivo, Brassica napus
Summary of the method: as §1

sugar beet = assay: Test B pre/postemergence sugar beet; format: in vivo, Beta vulgaris
Summary of the method: as §1

velvetleaf = assay: Test B pre/postemergence velvetleaf; format: in vivo, Abutilon theophrasti
Summary of the method: as §1

wheat = assay: Test B pre/postemergence wheat; format: in vivo, Triticum aestivum
Summary of the method: as §1

purple nutsedge = assay: Test B pre/postemergence purple nutsedge; format: in vivo, Cyperus rotundus
Summary of the method: as §1

rice = assay: Test B flood test rice; format: in vivo, Oryza sativa
Summary of the method: (§2)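 Flood test on plants grown to the 2-leaf stage; treated plants kept in greenhouse twelve to sixteen days, then visually rated against controls on a 0 (no effect) to 10 (complete control) scale.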

smallflower flatsedge = assay: Test B flood test smallflower flatsedge; format: in vivo, Cyperus difformis
Summary of the method: as §2

duck salad = assay: Test B flood test duck salad; format: in vivo, Heteranthera limosa
Summary of the method: as §2

[1] = Postemergence, Rate 125 g/ha, scale of 0 to 10 where 0 is no effect and 10 is complete control
[2] = Postemergence, Rate 1000 g/ha, scale 0 to 10 (0 no effect, 10 complete control)
[3] = Preemergence, Rate 62 g/ha, scale 0 to 10 (0 no effect, 10 complete control)
[4] = Preemergence, Rate 125 g/ha, 0 is no effect, 10 is complete control
[5] = Preemergence, Rate 250 g/ha, scale 0 to 10, 0 is no effect, 10 is complete control
[6] = Preemergence, Rate 500 g/ha, scale 0 to 10 (0 no effect, 10 complete control)
[7] = Rate 62 g/ha, Postemergence, scale of 0 to 10 where 0 is no effect and 10 is complete control
[8] = Rate 250 g/ha, Postemergence, scale 0 to 10, 0 is no effect, 10 is complete control
[9] = Rate 500 g/ha, Postemergence, scale 0 to 10
[10] = Rate 1000 g/ha, Preemergence, scale 0 to 10 (0 no effect, 10 complete control)
[11] = Postemergence (flood test species), Rate 125 g/ha, scale of 0 to 10 where 0 is no effect and 10 is complete control
[12] = Rate 62 g/ha, Postemergence section, flood test species, scale of 0 to 10 where 0 is no effect and 10 is complete control
[13] = Rate 250 g/ha, Postemergence (flood test), scale 0 to 10, 0 is no effect, 10 is complete control
[14] = Rate 500 g/ha, listed under Postemergence (flood test species), scale 0 to 10

For `C=CCn1c(=O)on(C(=O)N(c2ccc(F)cc2F)C2CC2)c1=O` [Compound 127], the “Blackgrass plant response rating” value (blackgrass; [1]) was 0, the “Blackgrass plant response rating” value (blackgrass; [2]) was 0 and the “Blackgrass plant response rating” value (blackgrass; [3]) was 0. For the same compound, the “Blackgrass plant response rating (0 to 10 scale)” value (blackgrass; [4]) was 0, the “Blackgrass plant response rating” value (blackgrass; [5]) was 0 and the “Blackgrass plant response rating” value (blackgrass; [6]) was 0. For the same compound, the “Blackgrass plant response rating” value (blackgrass; [7]) was 0, the “Plant response rating, Blackgrass” value (blackgrass; [8]) was 0 and the “Blackgrass plant response rating” value (blackgrass; [9]) was 0. For the same compound, the “Plant response rating, Blackgrass” value (blackgrass; [10]) was 0, the “B. signalgrass plant response rating” value (surinam grass; Postemergence, Rate 62 g/ha, scale 0 to 10, 0 is no effect, 10 is complete control) was 0 and the “B. signalgrass plant response rating” value (surinam grass; [1]) was 0. For the same compound, the “B. signalgrass plant response rating” value (surinam grass; [2]) was 0, the “B. signalgrass plant response rating” value (surinam grass; [3]) was 0 and the “B. signalgrass plant response rating (0 to 10 scale)” value (surinam grass; [4]) was 0. For the same compound, the “B. signalgrass plant response rating” value (surinam grass; [5]) was 0, the “B. signalgrass plant response rating” value (surinam grass; [6]) was 0 and the “Plant response rating, B. signalgrass” value (surinam grass; [8]) was 0. The “B. signalgrass plant response rating” value (surinam grass; Rate 500 g/ha, Postemergence, scale of 0 to 10 where 0 is no effect and 10 is complete control) was 0, the “Plant response rating, B. signalgrass” value (surinam grass; [10]) was 0 and the “Cocklebur plant response rating” value (cocklebur; [1]) was 0. The “Cocklebur plant response rating” value (cocklebur; [2]) was 0, the “Cocklebur plant response rating” value (cocklebur; [3]) was 0 and the “Cocklebur plant response rating (0 to 10 scale)” value (cocklebur; [4]) was 0. The “Cocklebur plant response rating” value (cocklebur; [5]) was 0, the “Cocklebur plant response rating” value (cocklebur; [6]) was 0 and the “Cocklebur plant response rating” value (cocklebur; [7]) was 0. For the same compound, the “Plant response rating, Cocklebur” value (cocklebur; [8]) was 0, the “Cocklebur plant response rating” value (cocklebur; [9]) was 0 and the “Corn plant response rating” value (corn; [1]) was 0. The “Corn plant response rating” value (corn; [2]) was 0, the “Corn plant response rating” value (corn; [3]) was 0 and the “Corn plant response rating (0 to 10 scale)” value (corn; [4]) was 0. For the same compound, the “Corn plant response rating” value (corn; [5]) was 0, the “Corn plant response rating” value (corn; [6]) was 0 and the “Corn plant response rating” value (corn; [7]) was 0. For the same compound, the “Plant response rating, Corn” value (corn; [8]) was 0, the “Corn plant response rating” value (corn; [9]) was 0 and the “Plant response rating, Corn” value (corn; [10]) was 0. For the same compound, the “Crabgrass plant response rating” value (crabgrass; [1]) was 0, the “Crabgrass plant response rating” value (crabgrass; [2]) was 0 and the “Crabgrass plant response rating” value (crabgrass; [3]) was 0. For the same compound, the “Crabgrass plant response rating (0 to 10 scale)” value (crabgrass; [4]) was 0, the “Crabgrass plant response rating” value (crabgrass; [5]) was 0 and the “Crabgrass plant response rating” value (crabgrass; [6]) was 0. The “Crabgrass plant response rating” value (crabgrass; [7]) was 0, the “Plant response rating, Crabgrass” value (crabgrass; [8]) was 0 and the “Crabgrass plant response rating” value (crabgrass; [9]) was 0. For the same compound, the “Plant response rating, Crabgrass” value (crabgrass; [10]) was 7, the “Giant foxtail plant response rating” value (giant foxtail; [1]) was 0 and the “Giant foxtail plant response rating” value (giant foxtail; [2]) was 0. The “Giant foxtail plant response rating” value (giant foxtail; [3]) was 0, the “Giant foxtail plant response rating (0 to 10 scale)” value (giant foxtail; [4]) was 0 and the “Giant foxtail plant response rating” value (giant foxtail; [5]) was 2. The “Giant foxtail plant response rating” value (giant foxtail; [6]) was 4, the “Giant foxtail plant response rating” value (giant foxtail; [7]) was 0 and the “Plant response rating, Giant foxtail” value (giant foxtail; [8]) was 0. The “Giant foxtail plant response rating” value (giant foxtail; [9]) was 0, the “Plant response rating, Giant foxtail” value (giant foxtail; [10]) was 9 and the “Morningglory plant response rating” value (morningglory; [1]) was 0. The “Morningglory plant response rating” value (morningglory; [2]) was 0, the “Morningglory plant response rating” value (morningglory; [3]) was 0 and the “Morningglory plant response rating (0 to 10 scale)” value (morningglory; [4]) was 0. The “Morningglory plant response rating” value (morningglory; [5]) was 0, the “Morningglory plant response rating” value (morningglory; [6]) was 0 and the “Morningglory plant response rating” value (morningglory; [7]) was 0. The “Plant response rating, Morningglory” value (morningglory; [8]) was 0, the “Morningglory plant response rating” value (morningglory; [9]) was 0 and the “Plant response rating, Morningglory” value (morningglory; [10]) was 0. The “Redroot pigweed plant response rating” value (pigweed; [1]) was 0, the “Redroot pigweed plant response rating” value (pigweed; [2]) was 0 and the “Redroot pigweed plant response rating” value (pigweed; [3]) was 0. For the same compound, the “Redroot pigweed plant response rating (0 to 10 scale)” value (pigweed; [4]) was 0, the “Redroot pigweed plant response rating” value (pigweed; [5]) was 3 and the “Redroot pigweed plant response rating” value (pigweed; [6]) was 7. The “Redroot pigweed plant response rating” value (pigweed; [7]) was 0, the “Plant response rating, Redroot pigweed” value (pigweed; [8]) was 0 and the “Redroot pigweed plant response rating” value (pigweed; [9]) was 0. The “Plant response rating, Redroot pigweed” value (pigweed; [10]) was 10, the “Rape plant response rating” value (rape; [1]) was 0 and the “Rape plant response rating” value (rape; [2]) was 0. For the same compound, the “Rape plant response rating” value (rape; [3]) was 0, the “Rape plant response rating (0 to 10 scale)” value (rape; [4]) was 0 and the “Rape plant response rating” value (rape; [5]) was 0. The “Rape plant response rating” value (rape; [6]) was 0, the “Rape plant response rating” value (rape; [7]) was 0 and the “Plant response rating, Rape” value (rape; [8]) was 0. For the same compound, the “Rape plant response rating” value (rape; [9]) was 0, the “Plant response rating, Rape” value (rape; [10]) was 0 and the “Sugarbeets plant response rating” value (sugar beet; [1]) was 0. The “Sugarbeets plant response rating” value (sugar beet; [2]) was 0, the “Sugarbeets plant response rating” value (sugar beet; [3]) was 0 and the “Sugarbeets plant response rating (0 to 10 scale)” value (sugar beet; [4]) was 0. For the same compound, the “Sugarbeets plant response rating” value (sugar beet; [5]) was 0, the “Sugarbeets plant response rating” value (sugar beet; [6]) was 0 and the “Sugarbeets plant response rating” value (sugar beet; [7]) was 0. The “Plant response rating, Sugarbeets” value (sugar beet; [8]) was 0, the “Sugarbeets plant response rating” value (sugar beet; [9]) was 0 and the “Plant response rating, Sugarbeets” value (sugar beet; [10]) was 0. The “Velvetleaf plant response rating” value (velvetleaf; [1]) was 0, the “Velvetleaf plant response rating” value (velvetleaf; [2]) was 0 and the “Velvetleaf plant response rating” value (velvetleaf; [3]) was 0. For the same compound, the “Velvetleaf plant response rating (0 to 10 scale)” value (velvetleaf; [4]) was 0, the “Velvetleaf plant response rating” value (velvetleaf; [5]) was 0 and the “Velvetleaf plant response rating” value (velvetleaf; [6]) was 0. For the same compound, the “Velvetleaf plant response rating” value (velvetleaf; [7]) was 0, the “Plant response rating, Velvetleaf” value (velvetleaf; [8]) was 0 and the “Velvetleaf plant response rating” value (velvetleaf; [9]) was 0. The “Plant response rating, Velvetleaf” value (velvetleaf; [10]) was 0, the “Wheat plant response rating” value (wheat; [1]) was 0 and the “Wheat plant response rating” value (wheat; [2]) was 0. For the same compound, the “Wheat plant response rating” value (wheat; [3]) was 0, the “Wheat plant response rating (0 to 10 scale)” value (wheat; [4]) was 0 and the “Wheat plant response rating” value (wheat; [5]) was 0. For the same compound, the “Wheat plant response rating” value (wheat; [6]) was 0, the “Wheat plant response rating” value (wheat; [7]) was 0 and the “Plant response rating, Wheat” value (wheat; [8]) was 0. The “Wheat plant response rating” value (wheat; [9]) was 0, the “Plant response rating, Wheat” value (wheat; [10]) was 2 and the “Nutsedge plant response rating” value (purple nutsedge; [1]) was 0. The “Nutsedge plant response rating” value (purple nutsedge; [2]) was 0, the “Nutsedge plant response rating” value (purple nutsedge; [3]) was 0 and the “Nutsedge plant response rating (0 to 10 scale)” value (purple nutsedge; [4]) was 0. For the same compound, the “Nutsedge plant response rating” value (purple nutsedge; [5]) was 0, the “Nutsedge plant response rating” value (purple nutsedge; [6]) was 0 and the “Nutsedge plant response rating” value (purple nutsedge; [7]) was 0. For the same compound, the “Plant response rating, Nutsedge” value (purple nutsedge; [8]) was 0, the “Nutsedge plant response rating” value (purple nutsedge; [9]) was 0 and the “Rice plant response rating” value (rice; [11]) was 0. For the same compound, the “Rice plant response rating” value (rice; [12]) was 0, the “Plant response rating, Rice” value (rice; [13]) was 0 and the “Rice plant response rating” value (rice; [14]) was 0. For the same compound, the “S. Flatsedge plant response rating” value (smallflower flatsedge; [11]) was 0, the “S. Flatsedge plant response rating” value (smallflower flatsedge; [12]) was 0 and the “Plant response rating, S. Flatsedge” value (smallflower flatsedge; [13]) was 0. The “S. Flatsedge plant response rating” value (smallflower flatsedge; [14]) was 0, the “Ducksalad plant response rating” value (duck salad; [11]) was 0 and the “Ducksalad plant response rating” value (duck salad; [12]) was 0. For the same compound, the “Plant response rating, Ducksalad” value (duck salad; [13]) was 0 and the “Ducksalad plant response rating” value (duck salad; [14]) was 0.
